The nature of data set [1]: Lipophilicity, logD of compound. The format is physicochemical. The following applies: octanol/water.
Data set [2] in a line: Antagonist activity at human TRPA1 expressed in CHO cells assessed as cinnamaldehyde-induced calcium flux measured after 90 mins by FLIPR assay. The data set is classed as cell-based. The following applies: 1.5 h. (In general: A change in cytosolic calcium serves as a functional read-out for many receptors and channels.)
Data set [3] is described as follows: Metabolic stability in rat liver microsomes assessed as clearance by LC/MS-MS analysis. The data set is classed as ADME, Microsome. (Liver microsomes are vesicles of endoplasmic reticulum, rich in cytochrome P450 enzymes.)
Data set [4] in a line: Metabolic stability in human liver microsomes assessed as clearance by LC/MS-MS analysis. The format is ADME, Microsome.
A short description of data set [5]: Apparent permeability across apical to basolateral side in MDCK cells. The data set is classed as ADME, cell-based, Canis lupus familiaris. The following applies: dog, read-out: permeability.
Data set [6] can be described thus: Protein binding in human plasma. The following applies: read-out: PPB (converted). The format is ADME, cell-free.
Data set [7] in a line: Protein binding in rat plasma. The data set is classed as ADME, cell-free. The following applies: read-out: PPB (converted).
Data set [8] is described as follows: Half life in rat at 1 mg/kg. The data set is classed as ADME, organism-based. The following applies: in vivo.
The nature of data set [9]: Oral bioavailability in rat at 1 mg/kg. The data set is classed as ADME, organism-based. The following applies: in vivo.
Data set [10] deals with Transient receptor potential cation channel subfamily A member 1 (Rattus norvegicus) (UniProt Q6RI86). The experiment in a line: In vivo antagonist activity at TRPA1 in AITC-induced rat pain model assessed as nocifensive behaviour at 43.69 ratio of free plasma concentration to IC50 for rat […]. The format is functional, organism-based. The following applies: concentration not given here.
Chain of Transient receptor potential cation channel subfamily A member 1 (Rattus norvegicus) (Q6RI86 whole entry): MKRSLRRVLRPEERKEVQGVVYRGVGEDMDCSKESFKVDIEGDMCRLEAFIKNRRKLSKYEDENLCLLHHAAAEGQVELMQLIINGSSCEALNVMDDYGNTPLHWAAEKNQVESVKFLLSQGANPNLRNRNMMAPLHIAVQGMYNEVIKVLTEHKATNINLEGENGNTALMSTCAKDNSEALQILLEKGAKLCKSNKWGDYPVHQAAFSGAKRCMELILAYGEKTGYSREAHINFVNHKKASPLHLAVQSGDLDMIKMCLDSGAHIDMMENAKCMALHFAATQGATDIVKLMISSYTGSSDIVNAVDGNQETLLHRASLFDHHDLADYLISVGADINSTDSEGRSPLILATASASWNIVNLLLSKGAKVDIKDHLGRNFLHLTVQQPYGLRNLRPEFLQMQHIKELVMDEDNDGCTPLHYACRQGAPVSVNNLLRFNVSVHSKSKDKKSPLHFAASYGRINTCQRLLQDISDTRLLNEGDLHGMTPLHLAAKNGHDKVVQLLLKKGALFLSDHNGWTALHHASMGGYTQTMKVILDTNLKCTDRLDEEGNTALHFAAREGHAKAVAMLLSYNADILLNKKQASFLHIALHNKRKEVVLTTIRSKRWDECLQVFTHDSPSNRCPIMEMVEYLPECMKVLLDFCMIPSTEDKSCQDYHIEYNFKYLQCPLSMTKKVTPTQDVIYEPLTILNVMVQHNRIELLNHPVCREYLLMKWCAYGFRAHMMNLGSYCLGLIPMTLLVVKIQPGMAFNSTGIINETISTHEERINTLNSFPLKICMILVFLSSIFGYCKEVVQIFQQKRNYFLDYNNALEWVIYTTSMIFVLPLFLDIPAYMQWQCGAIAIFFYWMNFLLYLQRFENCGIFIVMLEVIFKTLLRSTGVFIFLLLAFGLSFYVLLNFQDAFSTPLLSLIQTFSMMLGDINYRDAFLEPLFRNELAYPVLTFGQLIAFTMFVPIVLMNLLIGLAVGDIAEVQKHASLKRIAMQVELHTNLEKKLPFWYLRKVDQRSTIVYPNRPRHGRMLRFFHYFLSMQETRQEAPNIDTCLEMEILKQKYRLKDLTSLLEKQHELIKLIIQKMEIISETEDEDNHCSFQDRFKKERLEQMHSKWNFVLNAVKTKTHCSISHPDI

For data set [11], the species on record is Rattus norvegicus. Kind of data set: Antinociceptive activity against AITC-induced rat pain model assessed as nocifensive behaviour by measuring unbound concentration. The data set is classed as functional, organism-based.
In data set [12] the target is Transient receptor potential cation channel subfamily A member 1 (Rattus norvegicus) (UniProt Q6RI86). The experiment in a line: In vivo antagonist activity at TRPA1 in AITC-induced rat pain model assessed as nocifensive behaviour at 2.94 ratio of free plasma concentration to IC50 for rat […]. The format is functional, organism-based. The following applies: concentration not given here.

Data set [13] can be described thus: Unbound Volume of distribution at steady state in rat at 1 mg/kg. The format is ADME, organism-based. The following applies: in vivo.
Data set [14] is described as follows: Clearance in rat at 1 mg/kg. The data set is classed as ADME, organism-based. The following applies: in vivo.
Data set [15] is described as follows: Kinetic solubility of the compound. The format is physicochemical. The following applies: read-out: Kinetic_solubility.
The target in data set [16] is Transient receptor potential cation channel subfamily A member 1 (Rattus norvegicus) (UniProt Q6RI86). The experiment in a line: In vivo antagonist activity at TRPA1 in AITC-induced rat pain model assessed as nocifensive behaviour at 0.86 ratio of free plasma concentration to IC50 for rat […]. The following applies: concentration not given here. The data set is classed as functional, organism-based.

For data set [17] the target is unchanged. The experiment in a line: In vivo antagonist activity at TRPA1 in AITC-induced rat pain model assessed as nocifensive behaviour at 12.67 ratio of free plasma concentration to IC50 for rat […]. The data set is classed as functional, organism-based. The following applies: concentration not given here.
Data set [18] in a line: Volume of distribution at steady stare in rat at 1 mg/kg. The data set is classed as ADME, organism-based. The following applies: in vivo, read-out: Vdss.
Data set [19] in a line: Metabolic stability in rat hepatocytes assessed as clearance. The data set is classed as ADME, cell-based, Hepatocyte.
Data set [20] in a line: Antagonist activity at rat TRPA1 expressed in CHO cells assessed as cinnamaldehyde-induced calcium flux measured after 90 mins by FLIPR assay. The format is cell-based. The following applies: 1.5 h.
The nature of data set [21]: Stability in rat plasma assessed as compound remaining after 4 hrs. The data set is classed as ADME, cell-free. The following applies: read-out: Stability.
Data set [22] in a line: Stability in human plasma assessed as compound remaining after 4 hrs. The following applies: read-out: Stability. The format is ADME, cell-free.
Data set [23] has as its target Transient receptor potential cation channel subfamily A member 1 (Rattus norvegicus) (UniProt Q6RI86). The experiment in a line: In vivo antagonist activity at TRPA1 in AITC-induced rat pain model assessed as nocifensive behaviour at 8 ratio of free plasma concentration to IC50 for rat […]. The data set is classed as functional, organism-based.
For data set [24] the target is unchanged. Kind of data set: In vivo antagonist activity at TRPA1 in AITC-induced rat pain model assessed as nocifensive behaviour at 44.77 ratio of free plasma concentration to IC50 for rat […]. The data set is classed as functional, organism-based. The following applies: concentration not given here.
Data set [25] has the same target. The experiment in a line: In vivo antagonist activity at TRPA1 in AITC-induced rat pain model assessed as nocifensive behaviour at 0.76 ratio of free plasma concentration to IC50 for rat […]. The data set is classed as functional, organism-based. The following applies: concentration not given here.
For data set [26] the target is unchanged. Kind of data set: In vivo antagonist activity at TRPA1 in AITC-induced rat pain model assessed as nocifensive behaviour at 21.57 ratio of free plasma concentration to IC50 for rat […]. The following applies: concentration not given here. The format is functional, organism-based.

Molecules are shown by their SMILES. Values after ≈ are worked out from the molar mass of the structure shown.

Consider `O=c1c2cccnc2cnn1Cc1nc([C@H]2[C@@H]3CN(c4cc(Cl)ccn4)C[C@@H]32)no1`, for which, in [1], the logD – broadly, lipophilicity at a set pH, counting ionised and neutral species – was 2.7. Besides, the IC50 (usually the concentration at which inhibition is half-maximal) in data set [2] was found to be 54 nM. Moreover, the CLhep predicted in [3] was 27 mL/min/kg; in data set [4], 14 mL/min/kg.

`Cn1cnc2ncn(Cc3nn([C@H]4C[C@H](Oc5cccc(Cl)c5)C4)c(=O)o3)c(=O)c21`: the logD in data set [1] was 2.2. In [2], the IC50 was 7.3 nM. The CLhep predicted is 11 mL/min/kg in data set [3] and 6 mL/min/kg in data set [4].

For the compound `Cn1cnc2ncn(Cc3nn([C@H]4CC[C@H](c5ccc(Cl)cc5)CC4)c(=O)o3)c(=O)c21`, in data set [1], the logD amounted to 2.6. The IC50 in [2] is above 20000 nM. Besides, the CLhep predicted in data set [3] is 19 mL/min/kg; in data set [4], 4.3 mL/min/kg.

In turn, `Cn1cnc2ncn(Cc3nc([C@H]4[C@@H]5CN(c6cc(Cl)ccn6)C[C@@H]54)no3)c(=O)c21` yielded a logD in [1] of 1.8. In [5], the Papp A→B turned out to be 17.3 ×10⁻⁶ cm/s. Moreover, the values for the fraction unbound in data set [6] and in [7] were 0.07 and 0.087, respectively. In addition, in data set [8], the half-life (usually the time in which the quantity being followed falls by half) was 1.8 h. In data set [9], the bioavailability (commonly dose-corrected exposure relative to a reference, in per cent) is 39%. Also, the inhibition (as a rule, the share of the control response that was lost under treatment) in data set [10] came out at 94%; in data set [12], 64%; in data set [16], 59%; in [17], 48%. Moreover, the EC50 – broadly, the concentration giving half of the maximal effect – in [11] turned out to be 220 nM. Also, the IC50 turned out to be 25 nM in data set [2] and 18 nM in [20]. Further, in data set [13], the Vduss worked out at 20.7 L/kg. Further, the clearance – broadly, the rate of elimination divided by the concentration – in [14] was 12 mL/min/kg. Further, the solubility kinetic in [15] was 97 µM (≈ 41.2 µg/mL). The Vd in [18] was determined as 1.8 L/kg. The CLhep predicted in data set [19] is 36 mL/min/kg.

`Cc1ncn2ncn(Cc3nc([C@H]4[C@@H]5CN(c6cccc(Cl)c6)C[C@@H]54)no3)c(=O)c12`: the pH-dependent lipophilicity (logD) in data set [1] turned out to be 2.6. The IC50 in data set [2] was found to be 50 nM. The CLhep predicted in data set [3] is 27 mL/min/kg; in [4] it was 14 mL/min/kg.

`Cn1cnc2ncn(Cc3nn([C@@H]4CO[C@@H](c5ccc(Cl)cc5)C4)c(=O)o3)c(=O)c21` registered a logD in data set [1] of 1.6. Further, the remaining at 4 h was 61% in data set [21] and 76% in data set [22]. Moreover, the IC50 in data set [2] worked out at 2 nM. Moreover, the CLhep predicted was 23 mL/min/kg in data set [3] and 9.5 mL/min/kg in [4].

Take `O=c1c2cccnc2ncn1Cc1nc([C@H]2[C@@H]3CN(c4cc(Cl)ccn4)C[C@@H]32)no1`: the pH-dependent lipophilicity (logD) in data set [1] was 2.4. The IC50 in data set [2] is 75 nM. In addition, the CLhep predicted in data set [3] is 13 mL/min/kg; in data set [4] it was 10 mL/min/kg.

In turn, `Cn1cnc2ncn(Cc3nn(C[C@H](F)c4ccc(Cl)cc4)c(=O)o3)c(=O)c21` gave a logD in data set [1] of 1.2. The Papp A→B in [5] amounted to 9 ×10⁻⁶ cm/s. Also, the inhibition stood at 20% in data set [23], 100% in data set [24], 20% in data set [25] and 37% in data set [26]. Also, in data set [6], the fraction unbound is 0.334. For the same compound, in [8], the half-life was 1.4 h. In data set [9], the bioavailability was 53%. Further, the EC50 in data set [11] was found to be 390 nM. Also, the IC50 in data set [2] stood at 20 nM; in data set [20], 18 nM. The compound also displayed a Vduss in data set [13] of 3.14 L/kg. In data set [14], the clearance came out at 17 mL/min/kg. Further, in data set [15], the solubility kinetic turned out to be 120 µM (≈ 48.6 µg/mL). Besides, the CLhep predicted was 28 mL/min/kg in data set [3], 5.6 mL/min/kg in data set [4] and 24 mL/min/kg in data set [19]. In addition, the Vd in [18] worked out at 1.3 L/kg.

Regarding `Cn1cnc2ncn(Cc3nc([C@H]4[C@@H]5C=C(c6ccccc6)C[C@@H]54)no3)c(=O)c21`, in data set [1], the logD was 2.7. Further, the IC50 in [2] amounted to 1.9 nM. Also, in data set [15], the solubility kinetic amounted to 1.4 µM (≈ 0.541 µg/mL).

In data set [1], `Cn1cnc2ncn(Cc3nn(CCOc4cccc(Cl)c4)c(=O)o3)c(=O)c21` came in with a logD of 1.3. In [2], the IC50 turned out to be 4600 nM. Further, the CLhep predicted was 34 mL/min/kg in data set [3] and 11 mL/min/kg in data set [4].

The values are drawn from ChEMBL document CHEMBL5055619, “Tetrahydrofuran-Based Transient Receptor Potential Ankyrin 1 (TRPA1) Antagonists: Ligand-Based Discovery, Activity in a Rodent Asthma Model, and Mechanism-of-Action via Cryogenic Electron Microscopy” (J Med Chem, 2021).
